Test results: ChEMBL document CHEMBL1135887, “Substituted pentacyclic carbazolones as novel muscarinic allosteric agents: synthesis and structure-affinity and cooperativity relationships” (J Med Chem, 2002)

Assays:
[1] = biological target: T1, Muscarinic acetylcholine receptor M1 (Homo sapiens) (UniProt P11229); assay: Logarithm of affinity (log 1/M) at the free muscarinic acetylcholine receptor M1 by using semiquantitative equilibrium and off-rate assay
T1 sequence (whole entry): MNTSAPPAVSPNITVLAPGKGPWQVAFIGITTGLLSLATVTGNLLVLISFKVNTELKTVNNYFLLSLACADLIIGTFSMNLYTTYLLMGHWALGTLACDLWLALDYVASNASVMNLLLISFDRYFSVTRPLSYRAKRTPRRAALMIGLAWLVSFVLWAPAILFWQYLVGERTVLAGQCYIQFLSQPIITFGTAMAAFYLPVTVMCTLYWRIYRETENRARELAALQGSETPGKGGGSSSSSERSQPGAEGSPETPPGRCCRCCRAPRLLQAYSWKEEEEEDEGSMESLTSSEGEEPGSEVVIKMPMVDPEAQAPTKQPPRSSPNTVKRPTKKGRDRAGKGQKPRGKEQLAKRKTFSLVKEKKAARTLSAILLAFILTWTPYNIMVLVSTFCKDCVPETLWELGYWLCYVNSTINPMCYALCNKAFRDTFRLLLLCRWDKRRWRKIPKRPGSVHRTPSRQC

[2] = biological target: T2, Muscarinic acetylcholine receptor M2 (Homo sapiens) (UniProt P08172); assay: Logarithm of affinity (log 1/M) at the muscarinic acetylcholine receptor M2 by using semiquantitative equilibrium and off-rate assay
T2 sequence (whole entry): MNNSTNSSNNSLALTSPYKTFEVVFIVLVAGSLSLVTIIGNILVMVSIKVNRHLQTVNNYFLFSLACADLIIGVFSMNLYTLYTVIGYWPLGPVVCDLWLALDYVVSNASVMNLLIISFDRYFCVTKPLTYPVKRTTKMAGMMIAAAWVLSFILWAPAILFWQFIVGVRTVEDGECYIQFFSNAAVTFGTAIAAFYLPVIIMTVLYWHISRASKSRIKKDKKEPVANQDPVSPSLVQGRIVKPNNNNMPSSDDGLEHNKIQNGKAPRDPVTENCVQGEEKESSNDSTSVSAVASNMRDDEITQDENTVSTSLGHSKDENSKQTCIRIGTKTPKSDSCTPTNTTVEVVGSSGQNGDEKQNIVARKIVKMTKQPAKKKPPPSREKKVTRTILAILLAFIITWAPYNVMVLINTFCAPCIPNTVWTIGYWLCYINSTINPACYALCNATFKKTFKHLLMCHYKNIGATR

[3] = biological target: T2, Muscarinic acetylcholine receptor M2 (Homo sapiens); assay: Logarithm of affinity (log 1/M) at the (N-methyl Scopolamine) NMS-liganded muscarinic acetylcholine receptor M2 by using semiquantitative equilibrium and off-rate assay
[4] = biological target: T1, Muscarinic acetylcholine receptor M1 (Homo sapiens); assay: Subtype selectivity and the cooperativity with N-methyl Scopolamine (NMS) at Muscarinic acetylcholine receptor M1; Activity range is 1.2-3
[5] = biological target: T3, Muscarinic acetylcholine receptor M4 (Homo sapiens) (UniProt P08173); assay: Logarithm of affinity (log 1/M) at the (N-methyl Scopolamine) NMS-liganded muscarinic acetylcholine receptor M4 by using semiquantitative equilibrium and off-rate assay
T3 sequence (whole entry): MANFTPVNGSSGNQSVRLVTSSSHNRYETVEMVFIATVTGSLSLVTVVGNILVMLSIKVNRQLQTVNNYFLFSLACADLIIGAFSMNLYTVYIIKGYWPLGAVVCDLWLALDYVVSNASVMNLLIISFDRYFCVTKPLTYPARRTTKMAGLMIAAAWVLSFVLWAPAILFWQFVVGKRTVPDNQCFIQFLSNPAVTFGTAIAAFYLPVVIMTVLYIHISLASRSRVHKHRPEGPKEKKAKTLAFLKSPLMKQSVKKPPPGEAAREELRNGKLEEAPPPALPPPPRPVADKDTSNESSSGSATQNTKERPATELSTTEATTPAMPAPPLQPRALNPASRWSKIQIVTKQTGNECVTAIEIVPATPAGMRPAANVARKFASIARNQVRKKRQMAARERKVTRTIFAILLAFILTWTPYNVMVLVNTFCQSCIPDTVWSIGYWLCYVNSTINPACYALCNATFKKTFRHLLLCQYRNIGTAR

[6] = biological target: Muscarinic acetylcholine receptor M3 (Homo sapiens) (UniProt P20309); assay: Logarithm of affinity (log 1/M) at the muscarinic acetylcholine receptor M3 by using semiquantitative equilibrium and off-rate assay
Chain of Muscarinic acetylcholine receptor M3 (Homo sapiens) (P20309 whole entry, looked up): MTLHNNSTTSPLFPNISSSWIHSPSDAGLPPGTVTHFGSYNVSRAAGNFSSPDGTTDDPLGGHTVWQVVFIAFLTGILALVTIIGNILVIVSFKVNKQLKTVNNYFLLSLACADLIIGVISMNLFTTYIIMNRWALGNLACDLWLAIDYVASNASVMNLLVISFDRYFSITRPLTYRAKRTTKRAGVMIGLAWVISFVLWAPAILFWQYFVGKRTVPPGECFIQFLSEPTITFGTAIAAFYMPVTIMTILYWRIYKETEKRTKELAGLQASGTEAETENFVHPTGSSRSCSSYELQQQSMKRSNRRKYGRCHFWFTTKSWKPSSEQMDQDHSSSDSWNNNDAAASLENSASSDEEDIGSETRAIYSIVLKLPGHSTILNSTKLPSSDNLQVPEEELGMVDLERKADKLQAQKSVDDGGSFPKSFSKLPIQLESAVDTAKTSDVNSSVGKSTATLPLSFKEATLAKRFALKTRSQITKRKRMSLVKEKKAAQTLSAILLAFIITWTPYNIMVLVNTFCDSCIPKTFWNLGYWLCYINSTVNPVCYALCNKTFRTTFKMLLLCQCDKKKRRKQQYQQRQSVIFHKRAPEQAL

[7] = biological target: Muscarinic acetylcholine receptor M3 (Homo sapiens) (UniProt P20309); assay: Subtype selectivity and the cooperativity with N-methyl Scopolamine (NMS) at muscarinic acetylcholine receptor M3; Activity range is 0.2-0.8
[8] = biological target: Muscarinic acetylcholine receptor M3 (Homo sapiens) (UniProt P20309); assay: Logarithm of affinity (log 1/M) at the (N-methyl Scopolamine) NMS-liganded muscarinic acetylcholine receptor M3 by using semiquantitative equilibrium and off-rate assay
[9] = biological target: T3, Muscarinic acetylcholine receptor M4 (Homo sapiens); assay: Logarithm of affinity (log 1/M) at the muscarinic acetylcholine receptor M4 by using semiquantitative equilibrium and off-rate assay
[10] = biological target: T1, Muscarinic acetylcholine receptor M1 (Homo sapiens); assay: Logarithm of affinity (log 1/M) at the (N-methyl Scopolamine) NMS-liganded muscarinic acetylcholine receptor M1 by using semiquantitative equilibrium and off-rate assay
[11] = biological target: T3, Muscarinic acetylcholine receptor M4 (Homo sapiens); assay: Subtype selectivity and cooperativity with N-methyl Scopolamine (NMS) at Muscarinic acetylcholine receptor M4; Activity range is 1.2-3
[12] = biological target: T2, Muscarinic acetylcholine receptor M2 (Homo sapiens); assay: Subtype selectivity and the cooperativity with N-methyl Scopolamine (NMS) at Muscarinic acetylcholine receptor M2; Activity range is 1.2-3
[13] = biological target: T1, Muscarinic acetylcholine receptor M1 (Homo sapiens); assay: Subtype selectivity and the cooperativity with N-methyl Scopolamine (NMS) at Muscarinic acetylcholine receptor M1; Activity range is 0.81-1.19
[14] = biological target: T2, Muscarinic acetylcholine receptor M2 (Homo sapiens); assay: Subtype selectivity and the cooperativity with N-methyl Scopolamine (NMS) at Muscarinic acetylcholine receptor M2
[15] = biological target: T3, Muscarinic acetylcholine receptor M4 (Homo sapiens); assay: Subtype selectivity and the cooperativity with N-methyl Scopolamine (NMS) at Muscarinic acetylcholine receptor M4
[16] = biological target: Muscarinic acetylcholine receptor M3 (Homo sapiens) (UniProt P20309); assay: Subtype selectivity and the cooperativity with N-methyl Scopolamine (NMS) at Muscarinic acetylcholine receptor M3; […]
[17] = biological target: T3, Muscarinic acetylcholine receptor M4 (Homo sapiens); assay: Subtype selectivity and the cooperativity with N-methyl Scopolamine (NMS) at Muscarinic acetylcholine receptor M4; Activity range is 0.2-0.8
[18] = biological target: T2, Muscarinic acetylcholine receptor M2 (Homo sapiens); assay: Subtype selectivity and the cooperativity with N-methyl Scopolamine (NMS) at Muscarinic acetylcholine receptor M2; Activity range is 0.2-0.8
[19] = biological target: T1, Muscarinic acetylcholine receptor M1 (Homo sapiens); assay: Subtype selectivity and the cooperativity with N-methyl Scopolamine (NMS) at Muscarinic acetylcholine receptor M1; Activity range is 0.2-0.8
[20] = biological target: T1, Muscarinic acetylcholine receptor M1 (Homo sapiens); assay: Subtype selectivity and the cooperativity with N-methyl Scopolamine (NMS) at Muscarinic acetylcholine receptor M1
[21] = biological target: T3, Muscarinic acetylcholine receptor M4 (Homo sapiens); assay: Subtype selectivity and the cooperativity with N-methyl Scopolamine (NMS) at Muscarinic acetylcholine receptor M4; Activity range is 0.81-1.19
[22] = biological target: Muscarinic acetylcholine receptor M3 (Homo sapiens) (UniProt P20309); assay: Subtype selectivity and the cooperativity with N-methyl Scopolamine (NMS) at Muscarinic acetylcholine receptor M3

Structure (SMILES)	Log 1/M [1]	Log 1/M [2]	Log 1/M [3]	Cooperativity [4]	Log 1/M [5]	Log 1/M [6]	Cooperativity [7]	Log 1/M [8]	Log 1/M [9]	Log 1/M [10]	Cooperativity [11]	Cooperativity [12]	Cooperativity [14]	Cooperativity [19]	further results
CC1(C)CC(=O)n2c3ccccc3c3c4c(cc1c32)CCNC4	5.6	5.69	5.87	3	5.8	4.86	0.8	4.56	5.42	5.69	3	3			
O=C1CCc2cc3c(c4c5cc(Cl)ccc5n1c24)CCNC3	5.66	5.93	6.54		6.14	5.16		5.23	5.61	5.58			> 3		Cooperativity [13]: 1.19; Cooperativity [15]: > 3; Cooperativity [16]: 1.19
O=C1CCc2cc3c(c4c5ccccc5n1c24)CCNC3	5.49	5.31	5.49	3	5.37	4.88	0.8	4.64	4.99	5.49	3	3			
O=C1CCc2cc3c(c4c5ccc(Cl)cc5n1c24)CCNC3	6.06	6.46	6.81	3	6.47	5.39		5.48	5.61	6.51		3			Cooperativity [15]: > 3; Cooperativity [16]: 1.19
COC(=O)c1ccc2c3c4c(cc5c3n(c2c1)C(=O)CC5)CNCC4	6.14	6.39	6.35		6.01	5.43	0.8	4.83	5.04	5.72				0.8	Cooperativity [17]: 0.8; Cooperativity [18]: 0.8
O=C1CCc2cc3c(c4c5c(Cl)cccc5n1c24)CCNC3	6.24	6.6	7.12	3	6.66	5.92		6.05	6.26	6.58	3		> 3		Cooperativity [16]: 1.19
CC1(C)CC(=O)n2c3cccc(O)c3c3c4c(cc1c32)CNCC4	5.8	5.56	5.88		5.97	5.15	0.8	4.84	5.75	5.84	3	3			Cooperativity [13]: 1.19
O=C1CCc2cc3c(c4c5c(O)cccc5n1c24)CCNC3	5.84	5.99	6.28		6.13	5.43		5.27	5.6	6.11			> 3		Cooperativity [20]: > 3; Cooperativity [15]: > 3; Cooperativity [16]: 1.19
O=C1CCc2cc3c(c4c5cccc(O)c5n1c24)CCNC3	5.49	5.36	5.67		5.25	5.06	0.8	4.37	5.43	5.38		3		0.8	Cooperativity [17]: 0.8
COc1cc2c3c4c(cc5c3n(c2cc1OC)C(=O)CC5(C)C)CCNC4	6.88	7.08	6.7		6.37	6.03	0.8	5.47	6.67	6.29				0.8	Cooperativity [17]: 0.8; Cooperativity [18]: 0.8
COc1ccc2c3c4c(cc5c3n(c2c1)C(=O)CC5)CNCC4	5.84	5.9	6.35	3	6.14	5.33	0.8	5.2	4.64	6.07	3	3			
N#Cc1ccc2c3c4c(cc5c3n(c2c1)C(=O)CC5)CNCC4	5.87	5.79	5.58		5.36	5.19	0.8	4.68	5.85	5.46				0.8	Cooperativity [18]: 0.8; Cooperativity [21]: 1.19
COC(=O)c1ccc2c(c1)c1c3c(cc4c1n2C(=O)CC4)CCNC3	6.19	6.14	6.03		5.91	5.55	0.8	4.88	5.84	5.85				0.8	Cooperativity [18]: 0.8; Cooperativity [21]: 1.19
O=C1CCc2cc3c(c4c5cc(O)ccc5n1c24)CCNC3	5.79	5.61	6.25		6.05	4.89		5.47	5.65	6.07			> 3		Cooperativity [20]: > 3; Cooperativity [22]: > 3; Cooperativity [15]: > 3
O=C(c1ccc2c(c1)c1c3c(cc4c1n2C(=O)CC4)CNCC3)N1CCOCC1	5.1	4.71	5.21		4.54	4.45		3.57	5.14	4.7			> 3		Cooperativity [17]: 0.8; Cooperativity [20]: < 0.2; Cooperativity [22]: < 0.2
COc1ccc2c3c4c(cc5c3n(c2c1)C(=O)CC5)CCNC4	6.13	5.92	6.18		6	5.14	0.8	4.86	5.68	6.17	3	3			Cooperativity [13]: 1.19
